pIC50: −log10 of the molar value.
Experiments:
[1] = test system: Interleukin-1β (IL-1β) Production; test: Inhibitory activity against interleukin-1β production (LPS-stimulated HL-60 cells, ELISA); assay type: cell-based; details: Homo sapiens, 72 h, lipopolysaccharide 10 μg/ml, culturing for 3 days
Method: HL-60 cells were cultured for 4 days until confluence on RPMI 1640 medium with 10% fetal bovine serum (FBS) added thereto. The HL-60 cells were centrifuged. The supernatant was discarded, and the cells were then suspended at 1×10^6 cells/ml on RPMI 1640 medium with 3% FBS, and lipopolysaccharide was added to give a final concentration of 10 μg/ml. The culture was inoculated at 1 ml/well to a 24-well plate. A test sample was added at 1 μl/well, followed by culturing for 3 days. Three days later, the amount of interleukin-1β in each of the cultures was measured by ELISA. Its IC50 value was determined by a comparison in yield with a control to which no test sample was added.

TNF-α Production = test: Inhibitory activity against TNF-α production (LPS-stimulated RAW 264.7 cells, L-929 cytotoxicity readout); assay type: cell-based; details: Mus musculus, RAW264.7, lipopolysaccharide, culturing for 20 hours
Method: RAW 264.7 cells were cultured until confluence on DMEM culture with 10% fetal bovine serum (FBS), and were diluted to 1×10^6 cells/ml with the same medium and then inoculated at 100 μl/well to a 96-well plate. To the cells, a test sample which had been diluted with the same medium and lipopolysaccharide of 4 μg/ml was added at 50 μl/well, respectively. Subsequent to culturing for 20 hours, the cultures were collected.
Making use of cytotoxicity to L-929 cell strain, a TNF-α sensitive cell strain, the amount of TNF-α in each of the cultures was measured as will be described next. Described specifically, L-929 cells which had been cultured on MEM medium with 10% FBS added thereto were diluted to 2×10^5 cells/ml with the same medium, and were then inoculated at 100 μl/well to a 96-well plate. Subsequent to overnight incubation, standard TNF-α solutions, or 100-fold, 200-fold and 500-fold dilute solutions of the above-described culture of RAW 264.7 cells were added at 50 μl/well, and actinomycin D (4 μg/ml) was also added at 50 μl/well, followed by further culturing for 20 hours. Twenty hours later, each well was washed with PBS, viable cells were stained with crystal violet, and the inhibitory activity against TNF-α production was determined with reference to a standard curve of TNF-α.

IL-6 Production = test: Inhibitory activity against IL-6 production (LPS-stimulated RAW 264.7 cells, ELISA); assay type: cell-based; details: Mus musculus, RAW264.7, lipopolysaccharide, culturing for 20 hours
Method: RAW 264.7 cells, which had been cultured until confluence on DMEM culture with 10% fetal bovine serum (FBS) added thereto, were diluted to 1×10^6 cells/ml with the same medium, and were then inoculated at 100 μl/well to a 96-well plate. A test sample which had been diluted with the same medium and lipopolysaccharide of 4 μg/ml in concentration was added at 50 μl/well, respectively. Subsequent to culturing for 20 hours, the cultures were collected.
The amount of IL-6 in each of the thus-obtained cultures of RAW 264.7 cells was measured by ELISA, and 5 the inhibitory activity against IL-6 production was determined with reference to a standard curve of IL-6.

[2] = test system: collagen-induced arthritis models of mice; test: Therapeutic effects for arthritis in collagen-induced arthritis models of mice; assay type: in vivo; details: P.O.; for Percent inhibition to swelling: determined by quantitation of swelling; for Percent inhibition to arthritis development: determined depending on the existence or non-existence of swelling
Method: In accordance with the disclosure of Nature 283, 666-668, 1980, therapeutic effects for arthritis were evaluated by using collagen-induced arthritis models of mice.

rats = test: Maximum no-effect level, oral once a day for 2 weeks, rats; assay type: in vivo; details: orally once a day for 2 weeks
dogs = test: Maximum no-effect level, oral once a day for 2 weeks, dogs; assay type: in vivo; details: orally once a day for 2 weeks

Row | SMILES | pIC50 [1] | melting point | further results
1 | COc1ccc(-c2cc(=O)n(CCCl)nc2-c2ccc(OC)cc2)cc1 [Comp. Comp'd 1] | 4.54 |  | pIC50 (TNF-α Production): 5.00; pIC50 (IL-6 Production): 4.19
2 | COc1ccc(-c2cc(=O)n(CCO)nc2-c2ccc(OC)cc2)cc1 [Comp. Comp'd 2] | 4.34 |  | pIC50 (TNF-α Production): 4.59; pIC50 (IL-6 Production): 4.36
3 | COc1ccc(-c2cc(=O)n(Cc3cccnc3)nc2-c2ccc(OC)cc2)cc1 [Example 44, 5,6-bis(4-methoxyphenyl)-2-(3-pyridylmethyl)-2H-pyridazin-3-one] | 6.37 | 167.4 to 168.4 °C | 
4 | CSc1ccc(-c2nn(Cc3ccccc3)c(=O)cc2-c2ccc(Cl)cc2)cc1 [Example 51, 2-benzyl-5-(4-chlorophenyl)-6-[4-(methylthio)phenyl]-2H-pyridazin-3-one] | 6.54 |  | Percent inhibition to swelling ([2]; 1 mg/kg): 33.3%; Percent inhibition to arthritis development ([2]; 1 mg/kg): 40%; Percent inhibition to swelling ([2]; 3 mg/kg): 77.4%; Percent inhibition to arthritis development ([2]; 3 mg/kg): 50%; Maximum no-effect level (rat) (rats): 100 mg/kg; toxicity at the dose level of Table 4 (in words) (rats): no toxicity was observed at all; Maximum no-effect level (dog) (dogs): 30 mg/kg; toxicity at the dose level of Table 4 (in words) (dogs): no toxicity was observed at all
5 | CSc1ccc(-c2nn(Cc3ccccc3)c(=O)cc2-c2ccc(F)cc2)cc1 [Example 61, 5-(4-fluorophenyl)-6-[4-(methylthio)phenyl]-2-benzyl-2H-pyridazin-3-one] | 6.68 | 140.6 to 140.7 °C | 
6 | CSc1ccc(-c2nn(Cc3ccc(Cl)cc3Cl)c(=O)cc2-c2ccc(F)cc2)cc1 [Example 65, 5-(4-fluorophenyl)-6-[4-(methylthio)phenyl]-2-(2,4-dichlorobenzyl)-2H-pyridazin-3-one] | 6.41 | 139.3 to 139.5 °C | 
7 | COc1ccc(-c2cc(=S)n(Cc3ccccc3)nc2-c2ccc(OC)cc2)cc1 [Example 123, 5,6-bis(4-methoxyphenyl)-2-benzyl-2H-pyridazine-3-thione] | 6.72 | 134.7 to 148.6 °C | 
8 | CSc1ccc(-c2nn(Cc3ccc(Cl)cc3Cl)c(=S)cc2-c2ccc(Cl)cc2)cc1 [Example 134, 5-(4-chlorophenyl)-2-(2,4-dichlorobenzyl)-6-[4-(methylthio)phenyl]-2H-pyridazine-3-thione] | 6.70 | 183.2 to 183.4 °C | 
9 | CSc1ccc(-c2nn(CC3CC3)c(=S)cc2-c2ccc(F)cc2)cc1 [Example 137, 2-cyclopropylmethyl-5-(4-fluorophenyl)-6-[4-(methylthio)phenyl]-2H-pyridazine-3-thione] | 6.57 | 135.7 to 135.8 °C | 
10 | COc1ccc(-c2nn(Cc3ccc(Cl)cc3)c(=S)cc2-c2ccncc2)cc1 [Example 142, 2-(4-chlorobenzyl)-6-(4-methoxyphenyl)-5-(4-pyridyl)-2H-pyridazine-3-thione] | 6.74 |  | 
11 | CCn1nc(-c2ccc(OC)c(F)c2)c(-c2ccc(OC)c(F)c2)cc1=O [Example 160, 5,6-bis(3-fluoro-4-methoxyphenyl)-2-ethyl-2H-pyridazin-3-one] | 6.31 | 177.8 to 178.5 °C | 
12 | CCn1nc(-c2ccc(OC)cc2)c(-c2ccc(OC)cc2)cc1=O [Example 163, 5,6-bis(4-methoxyphenyl)-2-ethyl-2H-pyridazin-3-one] | 6.21 |  | pIC50 (TNF-α Production): 5.92; pIC50 (IL-6 Production): 6.40
13 | COc1ccc(-c2cc(=O)n(C)nc2-c2ccc(OC)cc2)cc1 [Example 164, 5,6-bis(4-methoxyphenyl)-2-methyl-2H-pyridazin-3-one] | 5.95 |  | 
14 | COc1ccc(-c2cc(=O)n(C(C)C)nc2-c2ccc(OC)cc2)cc1 [Example 165, 5,6-bis(4-methoxyphenyl)-2-isopropyl-2H-pyridazin-3-one] | 5.88 |  | 
15 | COc1ccc(-c2cc(=O)n(C3CC3)nc2-c2ccc(OC)cc2)cc1 [Example 168, 5,6-bis(4-methoxyphenyl)-2-cyclopropyl-2H-pyridazin-3-one] | 5.10 |  | 
16 | COc1ccc(-c2cc(=O)n(CC3CC3)nc2-c2ccc(OC)cc2)cc1 [Example 169, 5,6-bis(4-methoxyphenyl)-2-cyclopropylmethyl-2H-pyridazin-3-one] | 5.74 |  | 
17 | COc1ccc(-c2cc(=S)n(CC3CC3)nc2-c2ccc(OC)cc2)cc1 [Example 170, 5,6-bis(4-methoxyphenyl)-2-cyclopropylmethyl-2H-pyridazine-3-thione] | 5.92 |  | 
18 | COc1ccc(-c2cc(=O)n(C3CCCC3)nc2-c2ccc(OC)cc2)cc1 [Example 171, 5,6-bis(4-methoxyphenyl)-2-cyclopentyl-2H-pyridazin-3-one] | 6.29 | 141.2 to 142.2 °C | 
19 | COc1ccc(-c2cc(=O)n(CC3CCCC3)nc2-c2ccc(OC)cc2)cc1 [Example 172, 5,6-bis(4-methoxyphenyl)-2-cyclopentylmethyl-2H-pyridazin-3-one] | 6.96 |  | 

Reference: US6348468B1, “Pyridazine compounds and compositions containing the same” (Kowa Co., Ltd., priority 1997, dated 2002)
